# According to patent US20190343908A1, “Therapeutic Combination for the Treatment of Cancer” (Nerium Biotechnology Inc., priority 2011, published 2019):
# Assays:
# [1] = test system: COR-L 105 (non-small cell lung carcinoma); assay: Methyl-Tetrazolium viability assay, COR-L 105; format: cell-based, human; parameters: key to MTT Average: absorbance (optical density) at 570 nm, second wavelength subtracted; details: for MTT Average 24 h / MTT Average 48 h / MTT Average 72 h: COR-L 105, Run 3
# Description: (§1) Three different viability assays were chosen to complement each other and yielded results dependent on concentration and cell line: the Methyl Tetrazolium dye assay, the Sulforhodamine B fluorescent dye assay, and the Crystal Violet dye assay.
# (§2) The Methyl-Tetrazolium dye assay measures the activity of enzymes in mitochondria. The dye precursor is taken up by cells, where it undergoes reduction to the purple formazan. It measures only the mitochondrial activity and, thus, it is not always a reliable indication of whether the cells themselves are alive or dead, since even a recently dead cell has […] enzyme activity in mitochondria. Intracellular glucose concentration, pH, and time before assay all affect the measurements.
# (§3) The Methyl Tetrazolium, Sulforhodamine B, and Crystal Violet assays were used to assess cell viabilities. The incubation times were 24 hours, 48 hours, and 72 hours. The Nerium oleander extract Anvirzel™ (a hot water extract of oleander obtained from Salud Integral, Honduras) was tested in concentrations ranging from 0.01 ng/mL to 10 ng/mL.
# (§4) Cells were detached by trypsinization (Trypsin-0.25% EDTA, Invitrogen, 25200-072) during the logarithmic phase of culture growth and plated in 96-well plates (18.000 cells/well) (Corning, Costar 359) in a final volume of 200 μl of medium per well. […] The absorbance was measured after 24 hours, 48 hours, and 72 hours of incubation.
# (§5) For the Methyl-Tetrazolium assay, the dye (Sigma, M2128; 5 mg/mL, diluted in phosphate-buffered saline) was added to each well and plates were incubated for 3 hours at 37° C. After the end of the incubation period, the medium was discarded and the cells were rinsed with phosphate-buffered saline. Finally, the formazan crystals were dissolved in dimethylsulphoxide (Sigma, D4540).
# (§6) The optical density of each plate was measured on a μQuant spectrophotometer and the data were analyzed with Gen5 software (μQuant Biomolecular Spectrophotometer MQX200 and Gen5™ Microplate Data Collection & Analysis software, BioTek® Instruments. Inc, April 2008). Absorbance was measured at 570 nm for all assays and a second wavelength was measured in order to subtract noise. For the Methyl-Tetrazolium assay this second wavelength was 630 nm and for the Sulforhodamine B and Crystal Violet assays it was 690 nm.
# [2] = test system: CALU-1 (non-small cell lung carcinoma); assay: Methyl-Tetrazolium viability assay, CALU-1; format: cell-based, human
# Description: as §1, §2, §3, §4, §5, §6
smiles,measurement,setting,value
N.N.[Cl][Pt][Cl] [cisplatin],MTT Average 24 h,[1]; 0.1 μg/ml CDDP,0.056
same,MTT Average 48 h,[1]; 0.1 μg/ml CDDP,0.069
same,MTT Average 72 h,[1]; 0.1 μg/ml CDDP,0.088
same,MTT Average 24 h,[1]; 1 μg/ml CDDP,0.02
same,MTT Average 48 h,[1]; 1 μg/ml CDDP,0.018
same,MTT Average 72 h,[1]; 1 μg/ml CDDP,0.012
same,MTT Average 24 h,[1]; 10 μg/ml CDDP,0.039
same,MTT Average 48 h,[1]; 10 μg/ml CDDP,0.023
same,MTT Average 72 h,[1]; 10 μg/ml CDDP,0.01
same,MTT Average 24 h,[1]; 100 μg/ml CDDP,0.019
same,MTT Average 48 h,[1]; 100 μg/ml CDDP,0.018
same,MTT Average 72 h,[1]; 100 μg/ml CDDP,0.009
same,MTT Average,"[1]; Run 1, 24 h, 0.1 μg/ml CDDP",0.083
same,MTT Average,"[1]; Run 1, 24 h, 1 μg/ml CDDP",0.023
same,MTT Average,"[1]; Run 1, 24 h, 10 μg/ml CDDP",0.057
same,MTT Average,"[1]; Run 1, 24 h, 100 μg/ml CDDP",0.015
same,MTT Average,"[1]; Run 1, 48 h, 0.1 μg/ml CDDP",0.099
same,MTT Average,"[1]; Run 1, 48 h, 1 μg/ml CDDP",0.018
same,MTT Average,"[1]; Run 1, 48 h, 10 μg/ml CDDP",0.023
same,MTT Average,"[1]; Run 1, 48 h, 100 μg/ml CDDP",0.016
same,MTT Average,"[1]; Run 1, 72 h, 0.1 μg/ml CDDP",0.056
same,MTT Average,"[1]; Run 1, 72 h, 1 μg/ml CDDP",0.017
same,MTT Average,"[1]; Run 1, 72 h, 10 μg/ml CDDP",0.021
same,MTT Average,"[1]; Run 1, 72 h, 100 μg/ml CDDP",0.018
same,MTT Average,"[1]; Run 2, 24 h, 0.1 μg/ml CDDP",0.056
same,MTT Average,"[1]; Run 2, 24 h, 1 μg/ml CDDP",0.02
same,MTT Average,"[1]; Run 2, 24 h, 10 μg/ml CDDP",0.039
same,MTT Average,"[1]; Run 2, 24 h, 100 μg/ml CDDP",0.019
same,MTT Average,"[1]; Run 2, 48 h, 0.1 μg/ml CDDP",0.069
same,MTT Average,"[1]; Run 2, 48 h, 1 μg/ml CDDP",0.018
same,MTT Average,"[1]; Run 2, 48 h, 10 μg/ml CDDP",0.023
same,MTT Average,"[1]; Run 2, 48 h, 100 μg/ml CDDP",0.018
same,MTT Average,"[1]; Run 2, 72 h, 0.1 μg/ml CDDP",0.088
same,MTT Average,"[1]; Run 2, 72 h, 1 μg/ml CDDP",0.012
same,MTT Average,"[1]; Run 2, 72 h, 10 μg/ml CDDP",0.01
same,MTT Average,"[1]; Run 2, 72 h, 100 μg/ml CDDP",0.009
same,Average MTT 24 h,"[2]; CALU-1 Run 1, 0.1 μg/ml CDDP",0.178
same,Average MTT 48 h,"[2]; CALU-1 Run 1, 0.1 μg/ml CDDP",0.272
same,Average MTT 72 h,"[2]; CALU-1 Run 1, 0.1 μg/ml CDDP",0.272
same,Average MTT 24 h,"[2]; CALU-1 Run 1, 1 μg/ml CDDP",0.024
same,Average MTT 48 h,"[2]; CALU-1 Run 1, 1 μg/ml CDDP",0.024
same,Average MTT 72 h,"[2]; CALU-1 Run 1, 1 μg/ml CDDP",0.032
same,Average MTT 24 h,"[2]; CALU-1 Run 1, 10 μg/ml CDDP",0.043
same,Average MTT 48 h,"[2]; CALU-1 Run 1, 10 μg/ml CDDP",0.031
same,Average MTT 72 h,"[2]; CALU-1 Run 1, 10 μg/ml CDDP",0.024
same,Average MTT 24 h,"[2]; CALU-1 Run 1, 100 μg/ml CDDP",0.033
same,Average MTT 48 h,"[2]; CALU-1 Run 1, 100 μg/ml CDDP",0.033
same,Average MTT 72 h,"[2]; CALU-1 Run 1, 100 μg/ml CDDP",0.019
same,Average MTT 24 h,"[2]; CALU-1 Run 2, 0.1 μg/ml CDDP",0.244
same,Average MTT 48 h,"[2]; CALU-1 Run 2, 0.1 μg/ml CDDP",0.322
same,Average MTT 72 h,"[2]; CALU-1 Run 2, 0.1 μg/ml CDDP",0.29
same,Average MTT 24 h,"[2]; CALU-1 Run 2, 1 μg/ml CDDP",0.055
same,Average MTT 48 h,"[2]; CALU-1 Run 2, 1 μg/ml CDDP",0.024
same,Average MTT 72 h,"[2]; CALU-1 Run 2, 1 μg/ml CDDP",0.021
same,Average MTT 24 h,"[2]; CALU-1 Run 2, 10 μg/ml CDDP",0.056
same,Average MTT 48 h,"[2]; CALU-1 Run 2, 10 μg/ml CDDP",0.019
same,Average MTT 72 h,"[2]; CALU-1 Run 2, 10 μg/ml CDDP",0.015
same,Average MTT 24 h,"[2]; CALU-1 Run 2, 100 μg/ml CDDP",0.035
same,Average MTT 48 h,"[2]; CALU-1 Run 2, 100 μg/ml CDDP",0.016
same,Average MTT 72 h,"[2]; CALU-1 Run 2, 100 μg/ml CDDP",0.018
same,Average MTT 24 h,"[2]; CALU-1 Run 3, 0.1 μg/ml CDDP, 24 h",0.178
same,Average MTT 48 h,"[2]; CALU-1 Run 3, 0.1 μg/ml CDDP, 48 h",0.281
same,Average MTT 72 h,"[2]; CALU-1 Run 3, 0.1 μg/ml CDDP, 72 h",0.295
same,Average MTT 24 h,"[2]; CALU-1 Run 3, 1 μg/ml CDDP, 24 h",0.029
same,Average MTT 48 h,"[2]; CALU-1 Run 3, 1 μg/ml CDDP, 48 h",0.033
same,Average MTT 72 h,"[2]; CALU-1 Run 3, 1 μg/ml CDDP, 72 h",0.031
same,Average MTT 24 h,"[2]; CALU-1 Run 3, 10 μg/ml CDDP, 24 h",0.057
same,Average MTT 48 h,"[2]; CALU-1 Run 3, 10 μg/ml CDDP, 48 h",0.025
same,Average MTT 72 h,"[2]; CALU-1 Run 3, 10 μg/ml CDDP, 72 h",0.022
same,Average MTT 24 h,"[2]; CALU-1 Run 3, 100 μg/ml CDDP, 24 h",0.028
same,Average MTT 48 h,"[2]; CALU-1 Run 3, 100 μg/ml CDDP, 48 h",0.026
same,Average MTT 72 h,"[2]; CALU-1 Run 3, 100 μg/ml CDDP, 72 h",0.002
